From patent US9169279B2, “Crystallization method and bioavailability” (THAR PHARMACEUTICALS, INC., priority 2009, dated 2015)
Where two headings read alike, the source gives them in different places.

Assays:
[1] = Dog PK study: zoledronic acid in serum after IV or oral capsule dosing, enteric or non-enteric coated, with or without excess coformer (LC/MS/MS); format: in vivo, Beagle dogs; details: beagle
Description: This can be attributed to the fact that both animals have historically been used in the safety evaluation and PK screening studies and are recommended by appropriate regulatory agencies. […] Additional tests included ID administration in rats and administration of enteric coated capsules in dogs.
USA. Some animals have surgical catheters (jugular vein and intraduodenum) were implanted to the animals prior to the studies. Beagle dogs from Marshall Farms, N.Y., USA, weighing from (9-12 kg) were used in the studies presented herein. Surgical catheters (jugular vein) were implanted prior to the studies.
The dose volume of each dog was adjusted based upon the average weight of the dog. • ii. […]
Blood samples were placed without the use of an anticoagulant and allowed to sit at room temperature for approximately 30 minutes. Samples were then centrifuged at a temperature of 4° C., at a speed of 13,000 rpm, for 5 minutes. Serum was collected and split into two aliquots and stored frozen (−80° C.) until analysis.
In this study, capsules of particulate materials (zoledronic:DL-lysine:water complex and excess pure DL-lysine).

[2] = Dog urine excretion: quantity of zoledronic acid in urine over collection intervals (LC/MS/MS); format: in vivo, Beagle dogs; details: Leg 38, 0.12 mg/kg IV, saline solution
[3] = according to FDA Summary Basis of Approval; cited from earlier work
[4] = cited from earlier work
[5] = in vivo; cited from earlier work
[6] = iv, 0.12 mg/kg, Leg 38, 0.12 mg/kg IV, saline solution, read-out: Average serum concentration of 4 dogs
[7] = iv, 0.183 mg/kg, Leg 13, 0.183 mg/kg IV, saline solution, read-out: Average serum concentration of 5 dogs
[8] = po, Leg 19, 61.3 mg with 322.9 mg DL-lysine monohydrate, gelatin capsule, PO, read-out: Average serum concentration of 5 dogs
[9] = po, Leg 24, 64.0 mg with 374.8 mg L-lysine HCl, gelatin capsule, PO, read-out: Average serum concentration of 5 dogs

`O=P(O)(O)C(O)(Cn1ccnc1)P(=O)(O)O` [Zoledronic acid, (1-hydroxy-2-imidazol-1-yl-1-phosphono-ethyl)phosphonic acid] showed a concentration at 1 h [1, 6] of 174 ng/mL, a concentration at 1.25 h [1, 6] of 121 ng/mL and a concentration at 1.5 h [1, 6] of 90.6 ng/mL. For the same compound, the concentration at 2 h [1, 6] was 55.7 ng/mL, the concentration at 4 h [1, 6] was 15.1 ng/mL and the concentration at 8 h [1, 6] was 5.74 ng/mL. The concentration at 24 h [1, 6] was 2.49 ng/mL, the concentration at 0 h [1, 7] was 0.64 ng/mL and the concentration at 5 min [1, 7] was 477 ng/mL. It also gave a concentration at 10 min [1, 7] of 756 ng/mL, a concentration at 0.25 h [1, 7] of 1060 ng/mL and a concentration at 20 min ([1]; iv, 0.183 mg/kg, Leg 13, 0.183 mg/kg IV, saline solution, 20 min, read-out: Average serum concentration of 5 dogs) of 746 ng/mL. It also gave a concentration at 25 min ([1]; iv, 0.183 mg/kg, Leg 13, 0.183 mg/kg IV, saline solution, 25 min, read-out: Average serum concentration of 5 dogs) of 629 ng/mL, a concentration at 0.5 h [1, 7] of 523 ng/mL and a concentration at 0.75 h [1, 7] of 343 ng/mL. For the same compound, the concentration at 1 h [1, 7] was 245 ng/mL, the concentration at 1.25 h [1, 7] was 183 ng/mL and the concentration at 1.5 h [1, 7] was 140 ng/mL. For the same compound, the concentration at 2 h [1, 7] was 80.9 ng/mL, the concentration at 4 h [1, 7] was 23.4 ng/mL and the concentration at 8 h [1, 7] was 8.78 ng/mL. The concentration at 24 h [1, 7] was 3.84 ng/mL, the concentration at 0 h [1, 8] was 0 ng/mL and the concentration at 5 min [1, 8] was 34.1 ng/mL. It also gave a concentration at 10 min [1, 8] of 42.7 ng/mL, a concentration at 0.25 h [1, 8] of 220 ng/mL and a concentration at 0.5 h [1, 8] of 659 ng/mL. It also gave a concentration at 0.75 h [1, 8] of 479 ng/mL, a concentration at 1 h [1, 8] of 384 ng/mL and a concentration at 1.5 h [1, 8] of 210 ng/mL. The concentration at 2 h [1, 8] was 136 ng/mL, the concentration at 4 h [1, 8] was 34.2 ng/mL and the concentration at 8 h [1, 8] was 8.53 ng/mL. The concentration at 24 h [1, 8] was 2.07 ng/mL, the concentration at 0 h [1, 9] was 0 ng/mL and the concentration at 5 min [1, 9] was 0 ng/mL. It also gave a concentration at 10 min [1, 9] of 1.2 ng/mL, a concentration at 0.25 h [1, 9] of 14.1 ng/mL and a concentration at 0.5 h [1, 9] of 172 ng/mL. The concentration at 0.75 h [1, 9] was 340 ng/mL, the concentration at 1 h [1, 9] was 283 ng/mL and the concentration at 1.5 h [1, 9] was 163 ng/mL. The concentration at 2 h [1, 9] was 100 ng/mL, the concentration at 4 h [1, 9] was 26.3 ng/mL and the concentration at 8 h [1, 9] was 4.56 ng/mL. The concentration at 24 h [1, 9] was 0.89 ng/mL, the “Average quantity of zoledronic acid in urine excretion of 4 dogs” value (shortened to “Average quantity of zoledronic acid”) ([2]; interval 0-4 h) was 242050 ng and the “Average quantity of zoledronic acid” value ([2]; interval 4-8 h) was 21165 ng. For the same compound, the “Average quantity of zoledronic acid” value ([2]; interval 8-12 h) was 10925 ng, the “Average quantity of zoledronic acid” value ([2]; interval 12-24 h) was 43700 ng and the “Average quantity of zoledronic acid” value ([2]; interval 24-96 h) was 263151 ng. For the same compound, the oral bioavailability [3] was “approximately 1%”, the solubility ([4]; in 0.1 N HCl solution) was “sparingly soluble” and the solubility ([4]; in 0.1 N NaOH) was “freely soluble”. For the same compound, the solubility ([4]; in various organic solvents) was “practically insoluble”, the solubility ([4]; in water) was “sparingly soluble” and the “gastric and intestinal irritations” value [5] was “severe gastric and intestinal irritations”.
